Reference: patent US12708620B2, “Prodrugs and medical uses thereof” (priority 2018, dated 2026)
Entries after “also recorded” stand apart in the source; their conditions may differ.

What was measured:
[1] = system: pH2AX (Histone H2A.X, Phospho S139) in DMS 114 xenograft; test: DNA damage by pH2AX staining with pimonidazole colocalization; type: in vivo, BALB/c Nude Mice; details: 6 hours post single 600 mg/kg
Description: To evaluate the impact of Cpd.11 Ms treatment on the induction of DNA damage, histological analysis of pH2AX staining and investigated colocalization of pH2AX and pimonidazole staining was performed in the small cell lung cancer model, DMS 114. DNA damage was assessed at 6 hours post a single administration of Cpd.11 Ms at 600 mg/kg. Pimonidazole Hydrochloride and pH2AX (Histone H2A.X, Phospho S139) antibodies are commercially available (Anti-Pimonidazole Hydrochloride, HP FITC Mab-1, HPI Hypoxyprobe Inc; Anti-Histone H2A.X (Phospho S139) antibody [EP854 (2) Y] ChIP Grade, ab81299, Abcam). From each xenograft sample, 3 non-sequential, 5 μm section levels with 50 μm spacing between each level were obtained. From each level, two or three serial sections were produced and collected on two or three slides depending upon the staining required: i) H&E and Pimonidazole or ii) H&E, Pimonidazole and pH2AX. Sections were then dried overnight at ~37° C. prior to staining. The H&Es were performed on a Leica ST4040 staining platform using harris haematoxylin and 1% eosin. Following antigen retrieval and subsequent protein blocking, the pH2AX antibody was incubated on the study tissue sections at a concentration of 1:48000 for 60 minutes. Following quenching of endogenous Horse Radish Peroxidase (HRP) activity using 3% hydrogen peroxide (aqueous), binding of pH2AX was visualised using a polymer based HRP driven detection system and ImmPACT DAB chromogen giving a brown reaction product at the site of antibody binding. A haematoxylin nuclear counterstain was then applied to the tissue sections. The Pimonidazole (FITC conjugated) antibody was incubated on the study tissue sections at a concentration of 1:5000 for 60 minutes. Following quenching of endogenous Horse Radish Peroxidase (HRP) activity using 3% hydrogen peroxide (aqueous), binding of Pimonidazole was visualised using an HRP conjugated rabbit anti-FITC secondary antibody (HPI Hypoxyprobe Inc, anti-FITC-HRP) and ImmPACT DAB chromogen giving a brown reaction product at the site of antibody binding. […]

[2] = system: MDA-MB-468 tumor xenograft; test: breast cancer (TNBC) xenograft model; type: in vivo, BALB/c Nude Mice; details: MDA-MB-468 xenograft
[3] = system: panel of cancer cell lines; test: cytotoxicity across the tested cancer cell lines (summary statements); type: cell-based, human
Description: The IC50 values were obtained using the resazurin-based potency assay under anoxic (<0.01% O2) and/or normoxic conditions (21% O2). The hypoxia cytotoxicity ratio (HCR) is calculated as the ratio of IC50 value […] (HCR=IC50 normoxia/IC50 anoxia).
For anoxic condition, the complete medium for each cell line (25 ml in a T25 or 80 ml in a T80) was equilibrated in the anoxic chamber 48 h before use to allow an as large as possible interchange between media and atmosphere, agitating the flask once a day and just before use. The 96-well plates for cell seeding and the 96-well plates for preparation of a mother plate containing the compound to be tested (e.g. Cpd.11 Ms) at appropriate concentrations as well as disposable reagent reservoirs and pipet tips that are required for cell seeding under anoxic conditions were placed in anoxia at least 72 h before use. […]
Cell seeding was performed starting from a cell suspension (70% confluent flasks of cells). Appropriate cell numbers/volumes were used at the pre-determined cell density (typically 100 μl/well) as determined by performing a growth curve experiment were calculated. […]

MiaPaca-2 = test: in vitro cell culture sensitivity in anoxic conditions; type: cell-based, human

CCN1CCN(C(=O)c2cc(N(CCBr)CCOS(C)(=O)=O)c(S(C)(=O)=O)cc2[N+](=O)[O-])CC1.CS(=O)(=O)O [Cpd.11 Ms, 4-(5-((2-bromoethyl) (2-((methylsulfonyl)oxy)ethyl)amino)-4-(methylsulfonyl)-2-nitrobenzoyl)-1-ethylpiperazin-1-ium methanesulfonate]
DNA damage (pH2AX) in normoxic areas, treated vs vehicle treated animals [1]: not statistically significantly different | DNA damage (pH2AX), hypoxic (pimonidazole positive) vs normoxic (pimonidazole negative) areas in treated animals ([1]; P=0.023, methanesulfonate, 600 mg/kg): significantly higher DNA damage; also recorded: mostly detected in the hypoxic areas | DNA damage (pH2AX) in hypoxic (pimonidazole positive) areas, treated vs vehicle treated animals ([1]; P=0.038): significant increase in DNA damage | Anti-tumor effect ([2]; 200-800 mg/kg IP, hypoxic status confirmed): Strong impact, | impact on hypoxia by pimonidazole immunohistochemical staining ([2]; 400-800 mg/kg from 1 to 5 consecutive days): clear impact | hypoxic cytotoxic ratio ([3]; across cell lines): ≥ 10 | cytotoxicity against cancer cell lines resistant to cisplatin and/or chlorambucil ([3]; pre-clinical models): highly cytotoxic | sensitivity in anoxic conditions in vitro (MiaPaca-2): highly Cpd.11 Ms-sensitive
